Data published in the CheMixHub viscosity set.
± gives the uncertainty stated by the source.

Assay: xn = mol fraction of the nth substance listed

NC=O + C1COCCO1
101 kPa
Conditions | viscosity [mPa·s]
298.15 K, x1 = 0.2556 | 1.492 ± 0.019
298.15 K, x1 = 0.433 | 1.849 ± 0.023
298.15 K, x1 = 0.5602 | 2.219 ± 0.027
298.15 K, x1 = 0.6657 | 2.564 ± 0.03
298.15 K, x1 = 0.7461 | 2.863 ± 0.034
298.15 K, x1 = 0.8157 | 3.094 ± 0.036
298.15 K, x1 = 0.8733 | 3.26 ± 0.037
298.15 K, x1 = 0.9221 | 3.361 ± 0.038
298.15 K, x1 = 0.9643 | 3.363 ± 0.037
313.15 K, x1 = 0.2695 | 1.138 ± 0.015
313.15 K, x1 = 0.4572 | 1.383 ± 0.017
313.15 K, x1 = 0.58 | 1.621 ± 0.02
313.15 K, x1 = 0.6792 | 1.846 ± 0.022
313.15 K, x1 = 0.7583 | 2.039 ± 0.024
313.15 K, x1 = 0.8242 | 2.193 ± 0.025
313.15 K, x1 = 0.8775 | 2.294 ± 0.025
313.15 K, x1 = 0.9226 | 2.338 ± 0.026
313.15 K, x1 = 0.9638 | 2.362 ± 0.025

OCCCO + C1COCCO1
viscosity [mPa·s], 100 kPa
Conditions | x2 = 0.0996 | x2 = 0.2019 | x2 = 0.2972 | x2 = 0.3986 | x2 = 0.4989 | x2 = 0.5998 | x2 = 0.6951 | x2 = 0.8062 | x2 = 0.9159
293.15 K | 38.51 ± 7.7 | 26.36 ± 5.3 | 17.15 ± 3.4 | 10.05 ± 2 | 5.655 ± 1.1 | 3.887 ± 0.78 | 2.715 ± 0.54 | 2.018 ± 0.4 | 1.288 ± 0.26
298.15 K | 29.32 ± 5.9 | 20.14 ± 4 | 12.96 ± 2.6 | 8.427 ± 1.7 | 4.847 ± 0.97 | 3.375 ± 0.68 | 2.402 ± 0.48 | 1.806 ± 0.36 | 1.145 ± 0.23
303.15 K | 23.39 ± 4.7 | 15.44 ± 3.1 | 10.21 ± 2 | 6.477 ± 1.3 | 4.086 ± 0.82 | 2.968 ± 0.59 | 2.14 ± 0.43 | 1.632 ± 0.33 | 1.053 ± 0.21

OCCCO + CC#N
viscosity [mPa·s], 100 kPa
Conditions | x2 = 0.1027 | x2 = 0.2001 | x2 = 0.3048 | x2 = 0.4057 | x2 = 0.5001 | x2 = 0.6001 | x2 = 0.6993 | x2 = 0.8002 | x2 = 0.8956
293.15 K | 31.4 ± 6.3 | 19.6 ± 3.9 | 11.4 ± 2.3 | 6.84 ± 1.4 | 4.12 ± 0.83 | 2.59 ± 0.52 | 1.59 ± 0.32 | 0.92 ± 0.18 | 0.58 ± 0.12
298.15 K | 24.7 ± 5 | 14.5 ± 2.9 | 8.12 ± 1.6 | 4.69 ± 0.94 | 2.89 ± 0.58 | 1.91 ± 0.38 | 1.23 ± 0.25 | 0.73 ± 0.15 | 0.47 ± 0.09
303.15 K | 19.4 ± 3.9 | 11.2 ± 2.2 | 5.78 ± 1.2 | 3.33 ± 0.67 | 2.21 ± 0.44 | 1.37 ± 0.27 | 0.89 ± 0.18 | 0.58 ± 0.12 | 0.39 ± 0.08

NC=O + CC(=O)N(C)C
viscosity [mPa·s], 101 kPa
Conditions | 298.15 K | 308.15 K | 318.15 K
x2 = 0.035 | 3.217 ± 0.14 | 2.532 ± 0.12 | 2.077 ± 0.096
x2 = 0.07 | 3.457 ± 0.15 | 2.677 ± 0.12 | 2.18 ± 0.1
x2 = 0.111 | 3.656 ± 0.16 | 2.847 ± 0.13 | 2.286 ± 0.11
x2 = 0.15 | 3.822 ± 0.17 | 2.95 ± 0.13 | 2.357 ± 0.11
x2 = 0.2053 | 3.966 ± 0.18 | 3.037 ± 0.14 | 2.416 ± 0.11
x2 = 0.2414 | 3.971 ± 0.18 | 3.057 ± 0.14 | 2.42 ± 0.11
x2 = 0.3009 | 3.932 ± 0.17 | 3.027 ± 0.14 | 2.389 ± 0.11
x2 = 0.3563 | 3.789 ± 0.17 | 2.92 ± 0.13 | 2.31 ± 0.11
x2 = 0.4177 | 3.537 ± 0.16 | 2.741 ± 0.12 | 2.16 ± 0.1
x2 = 0.458 | 3.338 ± 0.15 | 2.594 ± 0.12 | 2.076 ± 0.096
x2 = 0.5011 | 3.094 ± 0.14 | 2.43 ± 0.11 | 1.953 ± 0.091
x2 = 0.5474 | 2.826 ± 0.13 | 2.235 ± 0.1 | 1.81 ± 0.085
x2 = 0.5912 | – | 2.028 ± 0.094 | –
x2 = 0.5972 | 2.53 ± 0.12 | – | 1.65 ± 0.078
x2 = 0.65 | 2.251 ± 0.1 | 1.812 ± 0.085 | 1.505 ± 0.072
x2 = 0.7092 | 1.916 ± 0.089 | 1.579 ± 0.075 | 1.316 ± 0.063
x2 = 0.75 | 1.72 ± 0.081 | 1.441 ± 0.069 | 1.205 ± 0.059
x2 = 0.7948 | 1.54 ± 0.073 | 1.289 ± 0.062 | 1.096 ± 0.054
x2 = 0.891 | 1.21 ± 0.059 | 1.035 ± 0.051 | 0.901 ± 0.045

CN1CCC[C@H]1c1cccnc1 + CC(=O)O
viscosity [mPa·s], 101 kPa
Conditions | 298.15 K | 323.15 K
x1 = 0.1169 | 23.04 ± 0.64 | 7.777 ± 0.21
x1 = 0.1985 | 74.98 ± 2.1 | 18.12 ± 0.56
x1 = 0.2129 | 93.46 ± 2.7 | 20.8 ± 0.63
x1 = 0.2369 | 109.9 ± 3.4 | 21.63 ± 0.69
x1 = 0.2489 | 111.9 ± 3.5 | 22.09 ± 0.7
x1 = 0.2602 | 110.9 ± 3.5 | 21.72 ± 0.7
x1 = 0.2952 | 94.15 ± 2.8 | 19.47 ± 0.61
x1 = 0.3062 | 86.56 ± 2.5 | 18.65 ± 0.76
x1 = 0.3711 | 56.31 ± 1.5 | 13.21 ± 0.4
x1 = 0.47 | 24.1 ± 0.65 | 7.709 ± 0.22
x1 = 0.5888 | 15.2 ± 0.4 | 5.208 ± 0.14
x1 = 0.7306 | 8.751 ± 0.23 | 3.61 ± 0.098
x1 = 0.8435 | 7.072 ± 0.18 | 3.085 ± 0.083

NC=O + CC(=O)O
viscosity [mPa·s]
Conditions | 298.15 K | 303.15 K | 308.15 K | 313.15 K
101 kPa, x1 = 0.109 | 2.001 ± 0.062 | – | – | 1.462 ± 0.036
101 kPa, x1 = 0.2105 | 2.855 ± 0.11 | – | – | 2.029 ± 0.064
101 kPa, x1 = 0.3058 | 3.481 ± 0.15 | – | – | 2.361 ± 0.083
101 kPa, x1 = 0.4011 | 3.864 ± 0.17 | – | – | 2.589 ± 0.096
101 kPa, x1 = 0.5018 | 4.217 ± 0.2 | – | – | 2.791 ± 0.11
101 kPa, x1 = 0.5944 | 4.341 ± 0.21 | – | – | 2.904 ± 0.11
101 kPa, x1 = 0.7026 | 4.316 ± 0.2 | – | – | 2.903 ± 0.11
101 kPa, x1 = 0.7961 | 4.146 ± 0.19 | – | – | 2.899 ± 0.11
101 kPa, x1 = 0.9038 | 3.824 ± 0.17 | – | – | 2.589 ± 0.095
101.33 kPa, x1 = 0.0782 | 1.54 ± 0.08 | 1.39 ± 0.07 | 1.28 ± 0.06 | 1.19 ± 0.06
101.33 kPa, x1 = 0.1552 | 2.07 ± 0.1 | 1.84 ± 0.09 | 1.68 ± 0.08 | 1.54 ± 0.08
101.33 kPa, x1 = 0.2319 | 2.63 ± 0.13 | 2.3 ± 0.12 | 2.09 ± 0.11 | 1.89 ± 0.1
101.33 kPa, x1 = 0.3049 | 3.11 ± 0.16 | 2.71 ± 0.14 | 2.43 ± 0.12 | 2.19 ± 0.11
101.33 kPa, x1 = 0.3832 | 3.54 ± 0.18 | 3.06 ± 0.15 | 2.73 ± 0.14 | 2.45 ± 0.12
101.33 kPa, x1 = 0.4595 | 3.85 ± 0.19 | 3.32 ± 0.17 | 2.95 ± 0.15 | 2.65 ± 0.13
101.33 kPa, x1 = 0.5395 | 4.04 ± 0.2 | 3.52 ± 0.18 | 3.08 ± 0.16 | 2.81 ± 0.14
101.33 kPa, x1 = 0.6155 | 4.02 ± 0.2 | 3.5 ± 0.18 | 3.1 ± 0.16 | 2.77 ± 0.14
101.33 kPa, x1 = 0.6939 | 3.97 ± 0.2 | 3.49 ± 0.18 | 3.08 ± 0.16 | 2.75 ± 0.14
101.33 kPa, x1 = 0.7683 | 3.83 ± 0.19 | 3.4 ± 0.17 | 2.97 ± 0.15 | 2.67 ± 0.13
101.33 kPa, x1 = 0.8477 | 3.57 ± 0.18 | 3.1 ± 0.16 | 2.79 ± 0.14 | 2.53 ± 0.13
101.33 kPa, x1 = 0.9228 | 3.36 ± 0.17 | 2.94 ± 0.15 | 2.65 ± 0.13 | 2.4 ± 0.12

CC(=O)[O-].[Na+] + CC(=O)[O-].CC[n+]1ccn(C)c1
Conditions | viscosity [mPa·s]
298.15 K, 101 kPa, x1 = 0.0501 | 160.5 ± 11

CN1CCC[C@H]1c1cccnc1 + CC(=O)c1ccccc1
viscosity [mPa·s], 101 kPa
Conditions | x1 = 0.1332 | x1 = 0.2426 | x1 = 0.3782 | x1 = 0.4934 | x1 = 0.613 | x1 = 0.7431 | x1 = 0.8402
298.15 K | 1.872 ± 0.071 | 2.198 ± 0.081 | 2.537 ± 0.092 | 2.947 ± 0.11 | 3.238 ± 0.12 | 3.627 ± 0.13 | 3.736 ± 0.13
323.15 K | 1.162 ± 0.047 | 1.288 ± 0.051 | 1.453 ± 0.057 | 1.551 ± 0.06 | 1.743 ± 0.067 | 1.912 ± 0.072 | 1.962 ± 0.074
